{"source": "ChEMBL document CHEMBL1201862", "about": "“PubChem BioAssay data set” (2004)", "test_in_all_cases": "DTP human tumour cell line panel, 48 h", "key": {"A498": {"system": "A498"}, "A549": {"system": "A549"}, "CCRF-CEM": {"system": "CCRF-CEM"}, "COLO 205": {"system": "COLO 205"}, "DLD-1": {"system": "DLD-1"}, "DMS-114": {"system": "DMS-114"}, "DMS-273": {"system": "DMS-273"}, "EKVX": {"system": "EKVX"}, "HCC 2998": {"system": "HCC 2998"}, "HCT-116": {"system": "HCT-116"}, "HCT-15": {"system": "HCT-15"}, "HL-60": {"system": "HL-60"}, "HOP-18": {"system": "HOP-18"}, "HOP-62": {"system": "HOP-62"}, "HOP-92": {"system": "HOP-92"}, "HT-29": {"system": "HT-29"}, "IGROV-1": {"system": "IGROV-1"}, "K562": {"system": "K562"}, "KM-20L2": {"system": "KM-20L2"}, "KM12": {"system": "KM12"}, "LOX IMVI": {"system": "LOX IMVI"}, "M19-MEL": {"system": "M19-MEL"}, "MCF7": {"system": "MCF7"}, "MOLT-4": {"system": "MOLT-4"}, "Malme-3M": {"system": "Malme-3M"}, "NCI-H226": {"system": "NCI-H226"}, "NCI-H23": {"system": "NCI-H23"}, "NCI-H460": {"system": "NCI-H460"}, "NCI-H522": {"system": "NCI-H522"}, "NCI/ADR-RES": {"system": "NCI/ADR-RES"}, "OVCAR-3": {"system": "OVCAR-3"}, "OVCAR-4": {"system": "OVCAR-4"}, "OVCAR-5": {"system": "OVCAR-5"}, "OVCAR-8": {"system": "OVCAR-8"}, "RPMI-8226": {"system": "RPMI-8226"}, "RXF 393": {"system": "RXF 393"}, "SF-268": {"system": "SF-268"}, "SF-295": {"system": "SF-295"}, "SF-539": {"system": "SF-539"}, "SK-MEL-28": {"system": "SK-MEL-28"}, "SK-MEL-2": {"system": "SK-MEL-2"}, "SK-MEL-5": {"system": "SK-MEL-5"}, "SK-OV-3": {"system": "SK-OV-3"}, "SN12C": {"system": "SN12C"}, "SNB-19": {"system": "SNB-19"}, "SNB-75": {"system": "SNB-75"}, "SNB-78": {"system": "SNB-78"}, "SW-620": {"system": "SW-620"}, "U-251": {"system": "U-251"}, "UACC-257": {"system": "UACC-257"}, "UACC-62": {"system": "UACC-62"}, "UO-31": {"system": "UO-31"}, "XF498": {"system": "XF498"}}, "note": "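Growth conditions: 96-well plates. Treatment: test compound, 48 hours, 5 concentrations. Analysis: linear interpolation between bracketing concentrations; unreached endpoints set to highest concentration. At the GI50, growth is halved.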 Activity calls are given as the source filed them. Rule as the data show it: active = GI50 up to about 1.1 µM and inactive = higher.", "data": [{"smiles": "C/C(=C/C(=O)Nc1ccccc1)Nc1onc(C)c1C", "values": [{"measurement": "GI50", "setting": "A498", "value": "> 100 µM (inactive)"}, {"measurement": "GI50", "setting": "A549", "value": "> 100 µM (inactive)"}, {"measurement": "GI50", "setting": "CCRF-CEM", "value": "> 100 µM (inactive)"}, {"measurement": "GI50", "setting": "COLO 205", "value": "> 100 µM (inactive)"}, {"measurement": "GI50", "setting": "DLD-1", "value": "> 100 µM (inactive)"}, {"measurement": "GI50", "setting": "DMS-114", "value": "> 100 µM (inactive)"}, {"measurement": "GI50", "setting": "DMS-273", "value": "> 100 µM (inactive)"}, {"measurement": "GI50", "setting": "EKVX", "value": "> 100 µM (inactive)"}, {"measurement": "GI50", "setting": "HCC 2998", "value": "> 100 µM (inactive)"}, {"measurement": "GI50", "setting": "HCT-116", "value": "> 100 µM (inactive)"}, {"measurement": "GI50", "setting": "HCT-15", "value": "> 100", "unit": "µM"}, {"measurement": "GI50", "setting": "HL-60", "value": "> 100 µM (inactive)"}, {"measurement": "GI50", "setting": "HOP-18", "value": "> 100 µM (inactive)"}, {"measurement": "GI50", "setting": "HOP-62", "value": "> 100 µM (inactive)"}, {"measurement": "GI50", "setting": "HOP-92", "value": "> 100 µM (inactive)"}, {"measurement": "GI50", "setting": "HT-29", "value": "> 100 µM (inactive)"}, {"measurement": "GI50", "setting": "IGROV-1", "value": "> 100 µM (inactive)"}, {"measurement": "GI50", "setting": "K562", "value": "> 100 µM (inactive)"}, {"measurement": "GI50", "setting": "KM-20L2", "value": "> 100 µM (inactive)"}, {"measurement": "GI50", "setting": "KM12", "value": "> 100 µM (inactive)"}, {"measurement": "GI50", "setting": "LOX IMVI", "value": "> 100 µM (inactive)"}, {"measurement": "GI50", "setting": "M19-MEL", "value": "> 100 µM (inactive)"}, {"measurement": "GI50", "setting": "MCF7", "value": "> 100 µM (inactive)"}, {"measurement": "GI50", "setting": "MOLT-4", "value": "> 100 µM (inactive)"}, {"measurement": "GI50", "setting": "Malme-3M", "value": "> 100 µM (inactive)"}, {"measurement": "GI50", "setting": "NCI-H226", "value": "> 100 µM (inactive)"}, {"measurement": "GI50", "setting": "NCI-H23", "value": "> 100 µM (inactive)"}, {"measurement": "GI50", "setting": "NCI-H460", "value": "> 100 µM (inactive)"}, {"measurement": "GI50", "setting": "NCI-H522", "value": "> 100 µM (inactive)"}, {"measurement": "GI50", "setting": "NCI/ADR-RES", "value": "> 100 µM (inactive)"}, {"measurement": "GI50", "setting": "OVCAR-3", "value": "> 100 µM (inactive)"}, {"measurement": "GI50", "setting": "OVCAR-4", "value": "> 100 µM (inactive)"}, {"measurement": "GI50", "setting": "OVCAR-5", "value": "> 100 µM (inactive)"}, {"measurement": "GI50", "setting": "OVCAR-8", "value": "> 100 µM (inactive)"}, {"measurement": "GI50", "setting": "RPMI-8226", "value": "> 100 µM (inactive)"}, {"measurement": "GI50", "setting": "RXF 393", "value": "> 100 µM (inactive)"}, {"measurement": "GI50", "setting": "SF-268", "value": "> 100 µM (inactive)"}, {"measurement": "GI50", "setting": "SF-295", "value": "> 100 µM (inactive)"}, {"measurement": "GI50", "setting": "SF-539", "value": "> 100 µM (inactive)"}, {"measurement": "GI50", "setting": "SK-MEL-28", "value": "> 100 µM (inactive)"}, {"measurement": "GI50", "setting": "SK-MEL-2", "value": "> 100 µM (inactive)"}, {"measurement": "GI50", "setting": "SK-MEL-5", "value": "> 100 µM (inactive)"}, {"measurement": "GI50", "setting": "SK-OV-3", "value": "> 100 µM (inactive)"}, {"measurement": "GI50", "setting": "SN12C", "value": "> 100 µM (inactive)"}, {"measurement": "GI50", "setting": "SNB-19", "value": "> 100 µM (inactive)"}, {"measurement": "GI50", "setting": "SNB-75", "value": "38.4 µM (inactive)"}, {"measurement": "GI50", "setting": "SNB-78", "value": "> 100 µM (inactive)"}, {"measurement": "GI50", "setting": "SW-620", "value": "> 100 µM (inactive)"}, {"measurement": "GI50", "setting": "U-251", "value": "> 100 µM (inactive)"}, {"measurement": "GI50", "setting": "UACC-257", "value": "> 100 µM (inactive)"}, {"measurement": "GI50", "setting": "UACC-62", "value": "> 100 µM (inactive)"}, {"measurement": "GI50", "setting": "UO-31", "value": "> 100 µM (inactive)"}, {"measurement": "GI50", "setting": "XF498", "value": "> 100 µM (inactive)"}]}]}
